Experimental data reported in PMC11672637, “7-O-Carboxylic Acid-Substituted 3-O-Alkyl Difluoroquercetin; An Aztreonam-Potentiating Agent Against Carbapenemase-Producing Pseudomonas aeruginosa Through Simultaneous Inhibition of Metallo-β-Lactamase and Efflux Pump” (Antibiotics, 2024).
In brackets after ≈: the same amount, converted by molar mass. Like-named read-outs stand apart in the source and are kept apart here.

How the values were obtained:
PA-003, blaVIM = test: MIC / checkerboard with ATM; type: cell-based, P. aeruginosa; parameters: key to Susceptibility category: S: susceptible; I: intermediate; R: resistant
PA-029, blaIMP = test: MIC / checkerboard with ATM; type: cell-based, P. aeruginosa; parameters: key to Susceptibility category: S: susceptible; I: intermediate; R: resistant; settings: for MIC: Pseudomonas aeruginosa
PA-030, blaIMP = test: MIC / checkerboard with ATM; type: cell-based, P. aeruginosa; parameters: key to Susceptibility category: S: susceptible; I: intermediate; R: resistant; settings: PA-030
[1] = test system: NDM-1-Producing P. aeruginosa (PA-017, blaNDM); test: MIC / checkerboard with ATM; type: cell-based; parameters: key to Susceptibility category: S: susceptible; I: intermediate; R: resistant; settings: PA-017
PA-025, blaNDM = test: MIC / checkerboard with ATM; type: cell-based, P. aeruginosa; parameters: key to Susceptibility category: S: susceptible; I: intermediate; R: resistant; settings: PA-025
PA-028, blaNDM = test: MIC / checkerboard with ATM; type: cell-based, P. aeruginosa; parameters: key to Susceptibility category: S: susceptible; I: intermediate; R: resistant; settings: for MIC: Pseudomonas aeruginosa
PA-034, blaNDM = test: MIC / checkerboard with ATM; type: cell-based, P. aeruginosa; parameters: key to Susceptibility category: S: susceptible; I: intermediate; R: resistant; settings: PA-034
[2] = test system: ATM-Resistant CPPA (n = 15); test: MIC distribution over clinical isolates; type: cell-based, P. aeruginosa; settings: Pseudomonas aeruginosa

Structure (SMILES): C[C@H]1[C@H](NC(=O)/C(=N\OC(C)(C)C(=O)O)c2csc(N)n2)C(=O)N1S(=O)(=O)O [ATM, aztreonam]
- Susceptibility to ATM (PA-003, blaVIM; PA-003, ATM alone): R (R (resistant, MIC ≥ 32 mg/L))
- Susceptibility category (PA-003, blaVIM; PA-003, Table S2): I
- MIC (PA-003, blaVIM; Pseudomonas aeruginosa, read-out: MIC of ATM): 32 µg/mL
- Susceptibility to ATM (PA-029, blaIMP; PA-029, ATM alone): R (R (resistant, MIC ≥ 32 mg/L))
- Susceptibility category (PA-029, blaIMP; PA-029, Table S2): R
- MIC (PA-029, blaIMP; PA-029, Table S2, read-out: MIC value): 32 µg/mL
- MIC (PA-029, blaIMP; read-out: MIC of ATM, PA-029, ATM alone (5 at 0 mg/L)): 32 µg/mL
- Susceptibility to ATM (PA-030, blaIMP; ATM alone): R (R (resistant, MIC ≥ 32 mg/L))
- Susceptibility category (PA-030, blaIMP; Table S2): R
- MIC (PA-030, blaIMP; Pseudomonas aeruginosa, Table S2, read-out: MIC value): 32 µg/mL
- Susceptibility to ATM ([1]; ATM alone): I (I (intermediate, MIC = 16 mg/L))
- Susceptibility category ([1]; Table S2): I
- Susceptibility to ATM (PA-025, blaNDM; ATM alone): I (I (intermediate, MIC = 16 mg/L))
- Susceptibility category (PA-025, blaNDM; Table S2): I
- Susceptibility to ATM (PA-028, blaNDM; PA-028, ATM alone): S (S (sensitive, MIC ≤ 8 mg/L))
- Susceptibility category (PA-028, blaNDM; PA-028, Table S2): S
- MIC (PA-028, blaNDM; PA-028, Table S2, read-out: MIC value): 4 µg/mL
- MIC (PA-028, blaNDM; read-out: MIC of ATM, PA-028, ATM alone (5 at 0 mg/L)): 8 µg/mL
- Susceptibility to ATM (PA-034, blaNDM; ATM alone): I (I (intermediate, MIC = 16 mg/L))
- Susceptibility category (PA-034, blaNDM; Table S2): I
- MIC50 ([2]; read-out: MIC50 of ATM, 5 at 0 mg/L): 16 µg/mL (≈ 36.7 µM)
- MIC90 ([2]; read-out: MIC90 of ATM, 5 at 0 mg/L): 64 µg/mL (≈ 147 µM)
